The values below are quoted from earlier work in US20230049319A1, “CANNABINOID-COMPRISING COSMETIC COMPOSITIONS” (THIS WORKS PRODUCTS LIMITED, priority 2020, published 2023).

SMILES strings stand for the structures.

The test system of data set [1] is chronic inflammation and pain. Particulars: mice and rats.
The conditions of data set [2]: in vivo.
Another data set relates to anxiety. As to conditions: in vivo.

As for `C=C(C)[C@@H]1CCC(C)=C[C@H]1c1c(O)cc(CCCCC)cc1O` [CBD, cannabidiol], the “chronic inflammation and pain” value in data set [1] was “substantially reduce”.
In the case of `C=CC(C)(O)CCC=C(C)C` (stereo not shown) [Linalool], the “dose shown to be safe” value in data set [2] is listed as ≤ 120 mg.
Regarding `C=C[C@](C)(O)CCC=C(C)C` [R-(−)-linalool], the “reducing anxiety, compared with trazodone hydrochloride” value in the data set on anxiety is reported as “as effective as the trazodone hydrochloride”.
`C=C[C@@](C)(O)CCC=C(C)C` [S-(+)-linalool]: the “reducing anxiety, compared with trazodone hydrochloride” value in the data set on anxiety is given as “as effective as the trazodone hydrochloride”.
